According to PubChem BioAssay AID2060509 (Molecular Pharmacology Branch, DTP, NCI, 2025):
“And” between values parts separate entries of the source, which are not always exact repeats. Identical values can stand only once.

Test system: 485176-168-R4-J1-PDC spheroids with HUVEC/MSC, viability
Assay: Anticancer human tumor 485176-168-R4-J1-PDC patient-derived pancreatic adenocarcinoma cell line growth inhibition [GQUAD]
Conditions: for viability, T/C: stronger effect = lower value
Source text: DNA G-quadruplex Stabilizer Agents in Combinations in Complex Spheroids
A high-throughput screen of multi-cell type tumor spheroids was designed to identify active combinations of DNA G-quadruplex stabilizer agents and targeted small molecules. Complex spheroids include a stromal component modeled by human endothelial cells (HUVEC) and fibroblasts modeled by human mesenchymal stem cells (MSCs). The concentration ranges selected for each drug and investigational agent were based upon clinically achievable concentrations if the clinical Cmax of the agent was known.
Compounds. The drugs and investigational agents: pidnarulex (CX-5461; NSC782164), APTO-253 (NSC789042), BRACO-19 (NSC847499), peposertib (NSC802822), ceralasertib (NSC780249), elimusertib (NSC800525), camonsertib (NSC841442), AZD-1390 (NSC803789), olaparib (NSC753686), talazoparib (NSC767125), ART-558 (NSC835418), sotorasib (NSC818433), MRTX-1133 (NSC836407), SN-38 (NSC673596), topotecan (NSC609699), etoposide (NSC141540), doxorubicin (NSC123127), gemcitabine (NSC613327), 5-fluorouracil (NSC19893), paclitaxel (NSC125973), vemurafenib (NSC761431), panobinostat (NSC761190), R-306465 (JNJ-16241199; NSC773264), adavosertib (NSC754352), TP-3654 (NSC805149), carboplatin (NSC241240), KSQ-4279 (NSC840948), and staurosporine (NSC755774) were obtained from the National Cancer Institute (NCI) Developmental Therapeutics Program Chemical Repository (34). The FDA-approved anticancer drug set is available from the NCI Developmental Therapeutics Program. […] The stock solutions were prepared in dimethyl sulfoxide (DMSO, Sigma-Aldrich, St. Louis, MO, cat. D2650) at 800-fold the tested concentration and stored at -70 degrees C prior to their use. All drugs and investigational agents were tested over a range starting from a high concentration at or near the clinical Cmax and decreasing in half-log increments. If the clinical Cmax for an agent had not been determined, the highest concentration tested was 10 microM.
2.3 Cell Culture. All cells were maintained in an incubator at 37 degrees C and 5% CO2 with 95% humidity. The PDC lines were cultured according to standard operating procedures established by the NCI PDMR. All PDCs were thawed and cultured in Matrigel-coated flasks prepared with a working solution of 1X Ham's F-12 nutrient mix, without supplementation (Invitrogen, cat. 11765054), 100 U/mL penicillin-streptomycin (Invitrogen, cat. 15140122), and 2.5% Matrigel (Corning Inc., cat. 354248) for the first three passages. The 857933-349-R-J2-PDC line was cultured in 6C/Colon 1B media, which includes advanced DMEM/F-12 (Thermo Fisher Scientific, cat. 12634028), 10 mM HEPES (Thermo Fisher Scientific, cat. 15630080), 1X GlutaMAX supplement (Thermo Fisher Scientific, cat. 35050061), 0.1 mg/mL primocin (InvivoGen, cat. ant-pm-2), 10% defined fetal bovine serum, heat inactivated (HyClone Laboratories Inc., cat. SH30070.03HI), 50% L-WRN conditioned media (ATCC, cat. CRL-3276), 1.25 mM N-Acetyl-L-cysteine (Sigma-Aldrich, cat. A9165), 10 mM nicotinamide (Sigma-Aldrich, cat. N0636), 1X B-27 supplement (Thermo Fisher Scientific, cat. 17504044), 1X N-2 supplement (Thermo Fisher Scientific, cat. 17502048), 10 microM Y-27632 dihydrochloride (Tocris Bioscience, cat. 1254), and 50 ng/mL human EGF recombinant protein (Thermo Fisher Scientific, cat. PHG0311). The 485176-168-R4-J1-PDC line was cultured in Panc media, which includes all 6C/Colon 1B media components plus 100 ng/mL human FGF-10 (Thermo Fisher Scientific, cat. 100-26), 500 nM SB-431542 (Selleckchem, cat. S1067), and gastrin (Tocris, cat. 3006).
[…]

[1] = curve of first compound, second compound 0.0316 µM
[2] = curve of first compound, second compound 0.1 µM
[3] = curve of first compound, second compound 0.316 µM
[4] = curve of first compound, second compound 1 µM
[5] = curve of first compound, second compound 3.16 µM
[6] = curve of first compound, second compound 10 µM
[7] = second compound 0.0316 µM, first compound 0.0316 µM
[8] = second compound 0.0316 µM, first compound 0.1 µM
[9] = second compound 0.0316 µM, first compound 0.316 µM
[10] = second compound 0.0316 µM, first compound 1 µM
[11] = second compound 0.0316 µM, first compound 3.16 µM
[12] = second compound 0.0316 µM, first compound 10 µM
[13] = second compound 0.1 µM, first compound 0.0316 µM
[14] = second compound 0.1 µM, first compound 0.1 µM
[15] = second compound 0.1 µM, first compound 0.316 µM
[16] = second compound 0.1 µM, first compound 1 µM
[17] = second compound 0.1 µM, first compound 3.16 µM
[18] = second compound 0.1 µM, first compound 10 µM
[19] = second compound 0.316 µM, first compound 0.0316 µM
[20] = second compound 0.316 µM, first compound 0.1 µM
[21] = second compound 0.316 µM, first compound 0.316 µM
[22] = second compound 0.316 µM, first compound 1 µM
[23] = second compound 0.316 µM, first compound 3.16 µM
[24] = second compound 0.316 µM, first compound 10 µM
[25] = second compound 1 µM, first compound 0.0316 µM
[26] = second compound 1 µM, first compound 0.1 µM
[27] = second compound 1 µM, first compound 0.316 µM
[28] = second compound 1 µM, first compound 1 µM
[29] = second compound 1 µM, first compound 3.16 µM
[30] = second compound 1 µM, first compound 10 µM
[31] = second compound 3.16 µM, first compound 0.0316 µM
[32] = second compound 3.16 µM, first compound 0.1 µM
[33] = second compound 3.16 µM, first compound 0.316 µM
[34] = second compound 3.16 µM, first compound 1 µM
[35] = second compound 3.16 µM, first compound 3.16 µM
[36] = second compound 3.16 µM, first compound 10 µM
[37] = second compound 10 µM, first compound 0.0316 µM
[38] = second compound 10 µM, first compound 0.1 µM
[39] = second compound 10 µM, first compound 0.316 µM
[40] = second compound 10 µM, first compound 1 µM
[41] = second compound 10 µM, first compound 3.16 µM
[42] = second compound 10 µM, first compound 10 µM
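Note: spheroids exposed to compounds for seven days before readout.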
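Throughout, for viability, T/C: percent viability relative to DMSO vehicle control wells as 100%.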

SMILES: O=c1[nH]cc(F)c(=O)[nH]1 + Cc1[nH]c2ccc(F)cc2c1-c1nc2c3cccnc3c3ncccc3c2[nH]1
- IC50 [1]: 928 nM
- IC50 [2]: 967 nM
- IC50 [3]: > 10000 nM
- IC50 [4]: 842 nM
- IC50 [5]: 2520 nM
- IC50 [6]: 807 nM
- viability, T/C [7]: 89.8%
- viability, T/C [8]: 83.4%
- viability, T/C [9]: 75.1%
- viability, T/C [10]: 46.7%
- viability, T/C [11]: 51.4%
- viability, T/C [12]: 46.6%
- viability, T/C [13]: 86.7%
- viability, T/C [14]: 96.3%
- viability, T/C [15]: 80.9%
- viability, T/C [16]: 45.9%
- viability, T/C [17]: 48.8%
- viability, T/C [18]: 52.5%
- viability, T/C [19]: 92.7%
- viability, T/C [20]: 102%
- viability, T/C [21]: 76.8%
- viability, T/C [22]: 55.5%
- viability, T/C [23]: 46.2%
- viability, T/C [24]: 54.8%
- viability, T/C [25]: 81.9%
- viability, T/C [26]: 104%
- viability, T/C [27]: 68.5%
- viability, T/C [28]: 49.8%
- viability, T/C [29]: 43.2%
- viability, T/C [30]: 47.2%
- viability, T/C [31]: 93.7%
- viability, T/C [32]: 86.5%
- viability, T/C [33]: 69.5%
- viability, T/C [34]: 65.1%
- viability, T/C [35]: 39.7%
- viability, T/C [36]: 47.2%
- viability, T/C [37]: 94.1%
- viability, T/C [38]: 80.5%
- viability, T/C [39]: 60.5%
- viability, T/C [40]: 46.8%
- viability, T/C [41]: 41.6%
- viability, T/C [42]: 48.5%

SMILES: C=CC(=O)N1CCN(c2nc(=O)n(-c3c(C)ccnc3C(C)C)c3nc(-c4c(O)cccc4F)c(F)cc23)C(C)C1 (stereo not drawn) + Cc1cnc(CNC(=O)c2c(=O)c3ccc(N4CCCN(C)CC4)nc3n3c2sc2ccccc23)cn1
- IC50 [1]: > 10000 nM
- IC50 [2]: > 10000 nM
- IC50 [3]: > 10000 nM
- IC50 [4]: > 10000 nM
- IC50 [5]: < 31.6 nM
- IC50 [6]: < 31.6 nM
- viability, T/C [7]: 108%
- viability, T/C [8]: 97.2%
- viability, T/C [9]: 111%
- viability, T/C [10]: 97.7%
- viability, T/C [11]: 114%
- viability, T/C [12]: 110%
- viability, T/C [13]: 67.5%
- viability, T/C [14]: 81.6%
- viability, T/C [15]: 86.7%
- viability, T/C [16]: 92.4%
- viability, T/C [17]: 96.4%
- viability, T/C [18]: 92.5%
- viability, T/C [19]: 63.8%
- viability, T/C [20]: 62.5%
- viability, T/C [21]: 83.7%
- viability, T/C [22]: 72.1%
- viability, T/C [23]: 81.6%
- viability, T/C [24]: 79.3%
- viability, T/C [25]: 58%
- viability, T/C [26]: 62.1%
- viability, T/C [27]: 80.1%
- viability, T/C [28]: 52.2%
- viability, T/C [29]: 61.1%
- viability, T/C [30]: 60.7%
- viability, T/C [31]: 49%
- viability, T/C [32]: 45.7%
- viability, T/C [33]: 46.9%
- viability, T/C [34]: 50.1%
- viability, T/C [35]: 54.6%
- viability, T/C [36]: 49.5%
- viability, T/C [37]: 43.6%
- viability, T/C [38]: 47.7%
- viability, T/C [39]: 51%
- viability, T/C [40]: 43.7%
- viability, T/C [41]: 49%
- viability, T/C [42]: 50.3%

SMILES: COc1cccc2c1C(=O)c1c(O)c3c(c(O)c1C2=O)CC(O)(C(=O)CO)CC3OC1CC(N)C(O)C(C)O1 (stereo not drawn)
- viability, T/C (compound 0.0316 µM): 94.5% and 91.5% and 81.9%
- viability, T/C (compound 0.1 µM): 59.7% and 68.6% and 56.4%
- viability, T/C (compound 0.316 µM): 51.7% and 52.9% and 48.3%
- viability, T/C (compound 1 µM): 16% and 16.9% and 15.1%
- viability, T/C (compound 3.16 µM): 4.15% and 1.93% and 4.74%
- viability, T/C (compound 10 µM): 0.3% and 0.31% and 0.43%
- IC50 (curve of compound): 215 nM and 283 nM and 193 nM

SMILES: CC1COCCN1c1cc(-c2ccnn2C)c2ccnc(-c3ccn[nH]3)c2n1 (stereo not drawn)
- viability, T/C (compound 0.0316 µM): 76.2% and 71.6% and 87.6%
- viability, T/C (compound 0.1 µM): 39.2% and 47.5% and 37.8%
- viability, T/C (compound 0.316 µM): 18.1% and 14.2% and 15.9%
- viability, T/C (compound 1 µM): 10.4% and 10.2% and 9.3%
- viability, T/C (compound 3.16 µM): 11.3% and 9.69% and 10%
- viability, T/C (compound 10 µM): 11.9% and 12.4% and 10.7%
- IC50 (curve of compound): 71.6 nM and 88.8 nM and 75.5 nM
